Structures can show the parent of a compound that is named as a salt.
Columns and labels:
[1] = test system: Human gingival fibroblasts (HGF); assay type: cell-based; details: MTT, 48 h
Experimental: Human gingival fibroblasts (HGF) in logarithmic growth active phase were selected and inoculated in 96-well plates. […] Different concentration gradients were set for each group, and 5 parallel samples were set for each concentration Untreated cells were set as blank control group. After incubation for 48 h, the old culture medium was removed, and 100 μL fresh medium containing 10% (v/v) MTT was added to each well. After incubation for another 2 h, the culture media was removed and 150 μL dimethyl sulfoxide/well was added. After shaking for 2 min, the absorbance of the solution was measured at 490 nm by using a microplate reader Varioscan Flash and cell viability was calculated.
Untreated cells were set as blank control group. After 48 h of culture, the old culture medium was removed, and 100 μL of culture medium containing 10% (v/v) MTT was added to each well. After incubation for 2 h, 150 μL DMSO was added to each well, and the absorbance at 490 nm was measured with a microplate reader for 2 min, and the cell survival rate was calculated.

Caspase-3 = test: Determination of Caspase-3 activity; assay type: cell-based, human; details: SW480, 1 mM, incubation 24 h, relative to blank control
Experimental: Determination of Caspase-3 activity: SW480 cells in logarithmic growth active phase were prepared into cell suspension and added into 6-well plate (4×10^5 cells/well). […] After incubation for 24 h, the old culture medium was removed and cells were collected and then centrifuged for 5 min (1200 rpm/min) at 4°C. The cells were washed with cold PBS twice, and the supernatant was sucked up as much as possible every time. 100 μL of cell lysate containing 1 mM phenylmethylsulfonyl fluoride (PMSF, protease inhibitor) was added to the collected cells, which were placed on ice for 30 min and vortex once every 5 min. […] 20 μL supernatant was taken for detection with Caspase-3 activity detection kit, and the absorbance value at A405 nm or A400 was measured by microplate reader. According to the absorbance ratio of material group cells to blank control group cells, the relative Caspase-3 activity degree was calculated.
Determination of Caspase-3 activity: SW480 cells in logarithmic growth active phase were prepared into cell suspension and added into 6-well plate (5×10^5 cells/well). […] 20 μL supernatant was taken for detection with Caspase-3 activity detection kit, and the absorbance value at A405 nm or A400 nm was measured by microplate reader. According to the absorbance ratio of material group cells to blank control group cells, the relative Caspase-3 activity degree was calculated.

SW480 cells [2] = test: Determination of mitochondrial membrane potential (JC-1); assay type: cell-based, human; details: SW480, 1 mM, incubation 24 h, JC-1, flow cytometry
Experimental: Determination of mitochondrial membrane potential: SW480 cells in logarithmic growth active phase were prepared into cell suspension and added into 6-well plate (5×10^5 cells/well). […] After incubation for 24 h, the old culture medium was removed, and the cells of each group were collected and centrifuged to obtain pure cells. 1 mL working solution of mitochondrial membrane potential detection kit (JC-1) was added to the collected cells, and then they were mixed thoroughly and incubated for 20 min. Then the mixture was centrifuged at 4°C. to remove working solution, and the cells were washed twice with JC-1 staining buffer (1×) on ice. Finally, 500 μL staining buffer was added to disperse the cells to obtain a cell suspension, and the change of mitochondrial membrane potential was detected by flow cytometry.
Determination of mitochondrial membrane potential: SW480 cells in logarithmic growth active phase were prepared into cell suspension and added into 6-well plate (5×10^5 cells/well). After incubation for 24 h, cells were treated with 1 mM hydroxyurea, 1 mM cLAVs and 1 mM nano-drug XI, respectively, and ntreated cells were set as blank control group. […] Finally, 500 μL staining buffer was added to disperse the cells to obtain a cell suspension, and the change of mitochondrial membrane potential was detected by flow cytometry.

SW480 cells [3] = test: Determination of superoxide anion in mitochondria; assay type: cell-based, human; details: SW480, 1 mM, incubation 4 h, laser confocal
Experimental: Determination of superoxide anion (O2^+) in mitochondria: SW480 cells in logarithmic growth active phase were prepared into cell suspension and added into 6-well plate (5×10^5 cells/well). […] After incubation for 4 h, the old culture medium was removed and 1 mL of fluorescent amine dye (50 μM) was added. After incubation for 2 h, cysteine was added to make the final concentration to be 200 μM. After incubation for 0.5 h, culture medium was removed and cells were washed with Krebs buffer for 3 times, then mitochondrial red dye was added to proceed mitochondrial staining for 30 min, and cells were washed with 37°C. medium for 3 times. Finally, the emission of fluorescent amine at 440-480 nm was detected by laser confocal to quantify […], and the emission of mitochondrial red dye at 590-650 nm was detected to locate mitochondria in cells.
Determination of superoxide anion (O2^+) in mitochondria: SW480 cells in logarithmic growth active phase were prepared into cell suspension and added into 6-well plate (5×10^5 cells/well). […] Finally, the emission of fluorescent amine at 440-480 nm was detected by laser confocal to quantify O2^+, and the emission of mitochondrial red dye at 590-650 nm was detected to locate mitochondria in cells.

SW480 cells [4] = test: Determination of cytochrome C release (western blot); assay type: cell-based, human; details: SW480, 1 mM, incubation 24 h
Experimental: Determination of cytochrome C release: SW480 cells in logarithmic growth active phase were prepared into cell suspension and added into 6-well plate (5×10^5 cells/well). […] After incubation for 24 h, the old culture medium was removed and cells were collected. The collected cells were centrifuged (1200 rpm/min) for 5 min at 4°C., and the supernatant was removed. The cells were washed with cold PBS twice, and die supernatant was sucked up as much as possible every lime. 100 μL of cell lysate containing 1 mM phenylmethylsulfonyl fluoride (PMSF, protease inhibitor) was added to the collected cells, which were placed on ice for 30 min and vortex once every 5 min. Then the mixture was centrifuged at 12000 rpm at 4°C. for 60 min, and the supernatant was quickly collected in another clean centrifuge tube, 20 μL supernatant was taken to analyze the content of cytochrome C in cytoplasm by western blot.
Determination of cytochrome C release: SW480 cells in logarithmic growth active phase were prepared into cell suspension and added into 6-well plate (5×10^5 cells/well). After incubation for 24 h, cells were treated with […], 1 mM cLAVs and 1 mM nano-drug XI, respectively, and untreated cells were set as blank control group. After incubation for 24 h, the old culture medium was removed and cells were collected. […]

[5] = test system: Subcutaneous SW480 xenograft model; test: In vivo antitumor assessment, subcutaneous SW480 xenograft; parameters: species or system BALB/c nude mice; details: SW480 xenograft nude mice; LA/cLAVs 10 mg/kg, Hydrea 6 mg/kg; once every 3 days, 8 times
Source text: Subcutaneous SW480 xenograft model was established in BALB/c nude mice (about 20 g each) of 4 weeks old.

Row | Compound | toxicity to normal cells (cell viability) [1] | relative Caspase-3 activity (Caspase-3) | mitochondrial membrane potential loss (SW480 cells [2]) | relative superoxide anion level in mitochondria (SW480 cells [3]) | cytochrome C release into cytoplasm (SW480 cells [4]) | tumor inhibition effect (tumor volume) [5]
1 | COc1cccc2c1C(=O)c1c(O)c3c(c(O)c1C2=O)C[C@@](O)(C(=O)CO)C[C@@H]3O[C@H]1C[C@H](N)[C@H](O)[C@H](C)O1 [DOX.HCl, doxorubicin hydrochloride] | can kill normal cells at very low doses |  |  |  |  | 
2 | Nc1ccn([C@@H]2O[C@H](CO)[C@@H](O)C2(F)F)c(=O)n1 [Gem.HCl, gemcitabine hydrochloride] | can kill normal cells at very low doses |  |  |  |  | 
3 | O=C(O)CCCC[C@@H]1CCSS1 [LA, (R)-(+)-lipoic acid] |  | can stimute the relative activity of Caspase-3 | can induce the decrease of mitochondrial membrane potential | can induce mitochondria to produce O2^+ |  | 
4 | NC(=O)NO [hydroxyurea] |  | can stimulate the relative activity of Caspase-3 | can all induce the decrease of mitochondrial membrane potential | can all induce mitochondria to produce O2^+ | promote the release of cytochrome C from the mitochondria to the cytoplasm | good tumor inhibition effect
